Data reported in PMC3260785 (The Journal of Physical Chemistry. B, 2011).

Biological target: T1, Formate dehydrogenase (FDH, Candida boidinii) ([Candida] boidinii, UniProt O13437)
T1 sequence (O13437 1-364): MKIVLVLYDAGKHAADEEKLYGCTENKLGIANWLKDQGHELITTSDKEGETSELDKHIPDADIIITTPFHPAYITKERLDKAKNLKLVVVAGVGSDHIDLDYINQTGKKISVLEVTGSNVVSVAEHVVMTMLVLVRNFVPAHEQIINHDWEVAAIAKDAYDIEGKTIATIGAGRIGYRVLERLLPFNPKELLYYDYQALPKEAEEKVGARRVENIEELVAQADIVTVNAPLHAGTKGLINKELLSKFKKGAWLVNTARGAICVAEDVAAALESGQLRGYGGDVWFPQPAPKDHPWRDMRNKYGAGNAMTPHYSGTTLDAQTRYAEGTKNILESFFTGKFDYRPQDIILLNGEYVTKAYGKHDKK
Assay: isothermal titration calorimetry
Assay type: binding

[N-]=[N+]=NCc1ccc[n+]([C@@H]2O[C@H](COP(=O)(O)OP(=O)(O)OC[C@H]3O[C@@H](n4cnc5c(N)ncnc54)[C@H](O)[C@@H]3O)[C@@H](O)[C@H]2O)c1 [PAAD^+]
Kd: 7 µM
